From patent EP1714645A1, “Pharmaceutical composition containing bakuchiol for treating breast cancer in women” (Sinphar Pharmaceutical Co., Ltd., priority 2005, dated 2006)
≈ marks a conversion by molar mass, not a printed value.

Columns and labels:
MDA-MB231 = assay: Cytotoxicity assay (CCK-8, net growth % vs control); assay type: cell-based; settings: Homo sapiens, MDA-MB-231; MDA-MB231 (estrogen receptor negative), 48 hours incubation; read-out: 50% inhibition of cell growth concentrations of test compounds (IC50)
Source text: (§1) Materials: DMEM (medium), RPMI (medium), L-glutamine, penicillin, streptomycin and FBS (fetal bovine serum) were obtained from Gibco (NY, USA). Culture plasticware was purchased from Coming (MA, USA). […] All other chemicals used were of reagent grade and were purchased from Sigma or E. Merck (Germany).
(§2) Cell lines and cell cultures: The human breast cancer cell lines T47D and MDA-MB231 were obtained from American Type Culture Collection (ATCC). Of both cancer cells, T47D is estrogen receptor positive, and MDA-MB231 is estrogen receptor negative. Cells were cultured at 37°C in RPMI medium containing 10% charcoal-dextran stripped fetal bovine serum for T47D cells and in DMEM medium containing 10% charcoal-dextran stripped fetal bovine serum for MDA-MB231 cells with 5% CO2. The cell proliferation was determined by counting the viable cells with trypan blue exclusion.
(§3) Cytotoxicity assay: Dispense 198 µl of cell suspension (20,000 cells for T47D per well and 10,000 cell for MDA-MB231 per well) in a 96-well plate and pre-incubate the plate for 24 hours in an incubator at 37°C with humidified 5% CO2. […] After plate was incubated for 48 hours in the incubator, media were aspirated of and new media (100 µl) were added and incubated for 1 more hour. […] Measure the absorbance at 450 nm using a ELISA reader. […]

T47D = assay: as above; assay type: cell-based; settings: Homo sapiens; T47D (estrogen receptor positive), 48 hours incubation; read-out: 50% inhibition of cell growth concentrations of test compounds (IC50)
Source text: as §1, §2, §3

female Wistar rats [1] = assay: Ovariectomized rat osteoporosis model, bone histomorphometry of proximal tibia; assay type: in vivo; settings: two months, mean value, p < 0.001 vs OVX; for Bone volume % (BV/TV): proximal tibia head trabecular bone, OVX group 12.50%, Sham 29.50%; for Erosion surface (ESBS, %): proximal tibia, OVX group 5.8%, Sham 4.7%
Source text: (§4) The purpose of this example is to show the potency of bakuchiol in treating osteoporosis, wherein ovary of a female rat is removed to stimulate osteoporosis caused by estrogen deficiency.
(§5) The female Wistar rats of 16 weeks old (unless specified in the other experiment description) were obtained from the stock reared by the Animal breeding center, National Scientific Council in Taipei. These rats were grouped by weights matched in order to distribute the physiological response variation from rats evenly into each group. These rats were grouping as follows: • Baseline group fed with no drug added food (n=8) • Sham operation group fed with no drug added food (Sham) (n=10) • Ovariectomy operation group fed with no drug added food (OVX) (n=8) • Ovariectomy operation group fed with Drug A (5 mg/kg) added food (OVX+A) (n=9) • Ovariectomy operation group fed with Drug B (15 mg/kg) added food (OVX+B) (n=9)
Ovariectomy (removal of ovaries) operation: Ovariectomy was induced using a protocol similar to that described by Wronski et al (Wronski et al, Endocrinology, 123(2), 681-86 (1988)).
During the experiments, the rats were housed in hanging grid cages in groups of two at 21°C with a 12 hours dark cycle. Food (Rat-mouse diet III, adequate in 1 % of calcium content and 1.2 % of phosphate content, Purina, USA) was administered by paired feeding between the experimental and control groups. Pair-feeding was carried out by calculating the average amount of food intake in the Sham group. So give the same amount of food to the OVX , OVX+A (5 mg/kg), OVX+B (15 mg/kg) group animals the following day. These animals were fed with a period of two months except for the baseline group which were killed on the very day of doing ovariectomy or sham operation. Rats of OVX+A and OVX+B groups were fed with the usual food chuck but added certain amount of compound A and B in it respectively. Water was given ad libitum to all rats.
The test drug was weighted according to dose of 5 mg/kg and 15 mg/kg, and added into the ususal food chuck powder and mixed with 10% starch paste. After fully mixed, these chuck powder were made into mass manually and dried by air flow oven. The food with added drug to rats was performed by single blind method.
These labeling and bone histomorphometry assessment were done based on standard procedure in bone research (Lin et al, Calcif. Tissue Int., 67, 373-377 (2000)). Specimen were prestained with Villanueva bone stain, then […] and embedded in London resin. Undecalcified sections of 7 µm thick were cut using Jung-K microtome (Leica Ltd, USA) and treated with Villanueva stain for observation under light microscopy. Seven µm thick unstained sections were prepared for fluorescent microscopy and assessed with program Osteomeasure (3.0 version, Atlanta, USA). […]

female Wistar rats [2] = assay: Ovariectomized rat osteoporosis model, apparent bone density measurement of tibia (Archimedes principle); assay type: in vivo; settings: two months, mean value, OVX group 1.549, Sham 1.589, p < 0.05 vs OVX
Source text: as §4, §5
Ovariectomy (removal of ovaries) operation: Ovariectomy was induced using a protocol similar to that described by Wronski et al (Wronski et al, Endocrinology, 123(2), 681-86 (1988)). […]
The whole tibia and femur were stripped off attached muscles and ligaments after sacrifice. […] The weight of bone measured in the air was marked as W-air. […] The apparent bone density was calculated as [W-air/(W-air minus W-water)] […]

[3] = test system: five different human cancer cells (lung (A549), ovary (SK-OV-3), skin (SK-MEL-2), central nervous system (XF498), and large intestine (HCT)); settings: range over A549, SK-OV-3, SK-MEL-2, XF498, HCT; cited from earlier work

SMILES: C=C[C@@](C)(/C=C/c1ccc(O)cc1)CCC=C(C)C [Bakuchiol, bakuchiol]
- IC50 (MDA-MB231): 0.62 µg/mL (≈ 2.42 µM)
- IC50 (T47D): 5 µg/mL (≈ 19.5 µM)
- Bone volume % (BV/TV) (female Wistar rats [1]; OVX+A group (5 mg/kg) in food): 19.80%
- Erosion surface (ESBS, %) (female Wistar rats [1]; OVX+A group (5 mg/kg) in food): 5.0%
- Bone volume % (BV/TV) (female Wistar rats [1]; OVX+B group (15 mg/kg) in food): 20.11%
- Erosion surface (ESBS, %) (female Wistar rats [1]; OVX+B group (15 mg/kg) in food): 4.8%
- Bone apparent density (female Wistar rats [2]; OVX+A group (5 mg/kg) in food): 1.582 gm/cm^3
- Bone apparent density (female Wistar rats [2]; OVX+B group (15 mg/kg) in food): 1.587 gm/cm^3
- average inhibitory concentration (IC50) [3]: 10~15 µg/cc
